Tested on: MV-4-11 cells
Experiment: Gene expression microarray analysis (Affymetrix PrimeView) and GSEA
Format: cell-based, human
Design: RFU PODN (11730768_x_at) / Fold change /veh PODN (11730768_x_at) / RFU LINC00158 (11744669_a_at) / Fold change /veh LINC00158 (11744669_a_at) / RFU DUSP10 (11751237_a_at) / Fold change /veh DUSP10 (11751237_a_at) / RFU ID3 (11757404_x_at) / Fold change /veh ID3 (11757404_x_at) / RFU PLEKHG5 (11737974_s_at) / Fold change /veh PLEKHG5 (11737974_s_at) / RFU LRRC4B (11730491_at) / Fold change /veh LRRC4B (11730491_at) / RFU GIMAP4 (11747438_a_at) / Fold change /veh GIMAP4 (11747438_a_at) / RFU KRT8 (11758183_x_at) / Fold change /veh KRT8 (11758183_x_at) / RFU CNN1 (11734310_a_at) / Fold change /veh CNN1 (11734310_a_at) / RFU VPS37D (11726825_at) / Fold change /veh VPS37D (11726825_at) / RFU C10orf10 (11716522_x_at) / Fold change /veh C10orf10 (11716522_x_at) / RFU KIR2DL2 /// KIR2DL4 /// KIR2DL5A /// KIR2DL5B /// KIR2DS1 /// KIR2DS2 /// KIR2DS3 /// KIR2DS4 /// KIR3DL3 /// KIR3DL3 /// KIR3DS1 (11738374_at) / Fold change /veh KIR2DL2 /// KIR2DL4 /// KIR2DL5A /// KIR2DL5B /// KIR2DS1 /// KIR2DS2 /// KIR2DS3 /// KIR2DS4 /// KIR3DL3 /// KIR3DL3 /// KIR3DS1 (11738374_at) / RFU C1QL1 (11718748_at) / Fold change /veh C1QL1 (11718748_at) / RFU TMPRSS4 (11747572_a_at) / Fold change /veh TMPRSS4 (11747572_a_at) / RFU HAMP (11756126_x_at) / Fold change /veh HAMP (11756126_x_at) / RFU RNFT2 (11725882_a_at) / Fold change /veh RNFT2 (11725882_a_at) / RFU NR4A2 (11747474_a_at) / Fold change /veh NR4A2 (11747474_a_at) / RFU ABCC12 (11746883_a_at) / Fold change /veh ABCC12 (11746883_a_at) / RFU TMEM136 (11760407_x_at) / Fold change /veh TMEM136 (11760407_x_at) / RFU CLDN22 /// WWC2 (11732394_at) / Fold change /veh CLDN22 /// WWC2 (11732394_at) / RFU HLA-DPB1 (11760878_x_at) / Fold change /veh HLA-DPB1 (11760878_x_at) / RFU SPINT1 (11716480_a_at) / Fold change /veh SPINT1 (11716480_a_at) / RFU GAP43 (11754022_s_at) / Fold change /veh GAP43 (11754022_s_at) / RFU A4GNT (11735810_at) / Fold change /veh A4GNT (11735810_at) / RFU PRB3 (11715151_x_at) / Fold change /veh PRB3 (11715151_x_at) / RFU TUBB4B (11761932_at) / Fold change /veh TUBB4B (11761932_at) / RFU CAPN14 (11732068_a_at) / Fold change /veh CAPN14 (11732068_a_at) / RFU TMCC2 (11721928_a_at) / Fold change /veh TMCC2 (11721928_a_at) / RFU IRGQ (11745062_a_at) / Fold change /veh IRGQ (11745062_a_at) / RFU FAM174B (11720279_a_at) / Fold change /veh FAM174B (11720279_a_at) / RFU TMPRSS4 (11748680_a_at) / Fold change /veh TMPRSS4 (11748680_a_at) / RFU FAM212B (11763350_a_at) / Fold change /veh FAM212B (11763350_a_at) / RFU PLEKHG5 (11743358_a_at) / Fold change /veh PLEKHG5 (11743358_a_at) / RFU ZSCAN30 (11745921_a_at) / Fold change /veh ZSCAN30 (11745921_a_at) / RFU CMKLR1 (11741424_a_at) / Fold change /veh CMKLR1 (11741424_a_at) / RFU LOC101060620 /// MAPK8IP1 (11723275_at) / Fold change /veh LOC101060620 /// MAPK8IP1 (11723275_at) / RFU SPTSSB (11747773_x_at) / Fold change /veh SPTSSB (11747773_x_at) / RFU PRSS12 (11739890_at) / Fold change /veh PRSS12 (11739890_at) / RFU BIN1 (11741810_x_at) / Fold change /veh BIN1 (11741810_x_at) / RFU WNT11 (11732464_a_at) / Fold change /veh WNT11 (11732464_a_at) / RFU C10orf10 (11716521_a_at) / Fold change /veh C10orf10 (11716521_a_at) / RFU C5orf56 (11738089_at) / Fold change /veh C5orf56 (11738089_at) / RFU CYB561 (11721691_x_at) / Fold change /veh CYB561 (11721691_x_at) / RFU ANKRD19P (11752326_a_at) / Fold change /veh ANKRD19P (11752326_a_at) / RFU OR2T12 /// OR2T33 /// OR2T8 (11738714_s_at) / Fold change /veh OR2T12 /// OR2T33 /// OR2T8 (11738714_s_at) / RFU VCAN (11748164_a_at) / Fold change /veh VCAN (11748164_a_at) / RFU JSRP1 (11732532_at) / Fold change /veh JSRP1 (11732532_at) / RFU KRTAP10-11 (11738290_x_at) / Fold change /veh KRTAP10-11 (11738290_x_at) / RFU MYO3A (11730013_a_at) / Fold change /veh MYO3A (11730013_a_at) / RFU EBF3 (11725865_a_at) / Fold change /veh EBF3 (11725865_a_at) / RFU CAMK2N1 (11719241_x_at) / Fold change /veh CAMK2N1 (11719241_x_at) / RFU C5orf56 (11738088_a_at) / Fold change /veh C5orf56 (11738088_a_at) / RFU OLFML3 (11715873_a_at) / Fold change /veh OLFML3 (11715873_a_at) / RFU LOC100653217 /// NTM (11731650_a_at) / Fold change /veh LOC100653217 /// NTM (11731650_a_at) / RFU MAPK11 (11762145_a_at) / Fold change /veh MAPK11 (11762145_a_at) / RFU FIZ1 (11724087_x_at) / Fold change /veh FIZ1 (11724087_x_at) / RFU OASL (11726364_x_at) / Fold change /veh OASL (11726364_x_at) / RFU SOX15 (11748057_x_at) / Fold change /veh SOX15 (11748057_x_at) / RFU CD79A (11719716_a_at) / Fold change /veh CD79A (11719716_a_at) / RFU HIST1H1D (11736915_at) / Fold change /veh HIST1H1D (11736915_at) / RFU CASKIN2 (11723855_a_at) / Fold change /veh CASKIN2 (11723855_a_at) / RFU LOC730098 (11760151_x_at) / Fold change /veh LOC730098 (11760151_x_at) / RFU OR4N2 (11742367_at) / Fold change /veh OR4N2 (11742367_at) / RFU PRRT2 (11749266_a_at) / Fold change /veh PRRT2 (11749266_a_at) / RFU SNX32 (11753110_a_at) / Fold change /veh SNX32 (11753110_a_at) / RFU CDHR5 (11726645_a_at) / Fold change /veh CDHR5 (11726645_a_at) / RFU RCAN1 (11760418_a_at) / Fold change /veh RCAN1 (11760418_a_at) / RFU FAM167A (11723789_a_at) / Fold change /veh FAM167A (11723789_a_at) / RFU FAM26E (11764081_at) / Fold change /veh FAM26E (11764081_at) / RFU ISYNA1 (11749810_s_at) / Fold change /veh ISYNA1 (11749810_s_at) / RFU ACY1 (11761880_at) / Fold change /veh ACY1 (11761880_at) / RFU 11764098_at / Fold change /veh 11764098_at / RFU SAMD14 (11745864_x_at) / Fold change /veh SAMD14 (11745864_x_at) / RFU NPB (11741838_a_at) / Fold change /veh NPB (11741838_a_at) / RFU TMPRSS6 (11731388_a_at) / Fold change /veh TMPRSS6 (11731388_a_at) / RFU KRTAP10-2 (11738614_at) / Fold change /veh KRTAP10-2 (11738614_at) / RFU ARHGAP8 /// PRR5-ARHGAP8 (11727945_x_at) / Fold change /veh ARHGAP8 /// PRR5-ARHGAP8 (11727945_x_at) / RFU KRTAP5-7 /// NADSYN1 (11734609_at) / Fold change /veh KRTAP5-7 /// NADSYN1 (11734609_at) / RFU RASL12 (11751679_a_at) / Fold change /veh RASL12 (11751679_a_at) / RFU CDKN2B (11736163_a_at) / Fold change /veh CDKN2B (11736163_a_at) / RFU PRF1 (11729649_at) / Fold change /veh PRF1 (11729649_at) / RFU, ZNF638 /// ZNF638-IT1 / Fold change vs veh, ZNF638 /// ZNF638-IT1 / RFU, PANK3 / Fold change vs veh, PANK3 / RFU, SH3YL1 / Fold change vs veh, SH3YL1 / RFU, ZEB2 / Fold change vs veh, ZEB2 / RFU, NRIP1 / Fold change vs veh, NRIP1 / RFU, PTTG1IP / Fold change vs veh, PTTG1IP / RFU, CAPN2 / Fold change vs veh, CAPN2 / RFU, MED14 / Fold change vs veh, MED14 / RFU, SNORA58 / Fold change vs veh, SNORA58 / RFU, C1orf63 / Fold change vs veh, C1orf63 / RFU, LRRFIP1 / Fold change vs veh, LRRFIP1 / RFU, NDUFAF7 / Fold change vs veh, NDUFAF7 / RFU, SLC12A2 / Fold change vs veh, SLC12A2 / RFU, IBTK / Fold change vs veh, IBTK / RFU, ESF1 / Fold change vs veh, ESF1 / Fold change vs veh, TMEM50B / RFU, TAOK1 / Fold change vs veh, TAOK1 / RFU, ACBD3 / Fold change vs veh, ACBD3 / RFU, TMA16 / Fold change vs veh, TMA16 / RFU, RWDD3 / Fold change vs veh, RWDD3 / RFU, BCAT1 / Fold change vs veh, BCAT1 / RFU, EDEM3 / Fold change vs veh, EDEM3 / RFU, TMEM33 / Fold change vs veh, TMEM33 / RFU, WDR75 / Fold change vs veh, WDR75 / RFU, AHCTF1 / Fold change vs veh, AHCTF1 / RFU, TFRC / Fold change vs veh, TFRC / RFU, ZDHHC17 / Fold change vs veh, ZDHHC17 / RFU, NOM1 / Fold change vs veh, NOM1 / RFU, ARL8B / Fold change vs veh, ARL8B / RFU, ZBTB11 / Fold change vs veh, ZBTB11 / RFU, TAMM41 / Fold change vs veh, TAMM41 / RFU, KIAA1704 /// LOC100996395 / Fold change vs veh, KIAA1704 /// LOC100996395 / RFU, ING1 / Fold change vs veh, ING1 / RFU, TRMT61B / Fold change vs veh, TRMT61B / RFU, FUBP3 / Fold change vs veh, FUBP3 / RFU, TP53 / Fold change vs veh, TP53 / RFU, TNKS2 / Fold change vs veh, TNKS2 / RFU, ZFP14 / Fold change vs veh, ZFP14 / RFU, ACTR2 / Fold change vs veh, ACTR2 / RFU, PPP3R1 / Fold change vs veh, PPP3R1 / RFU, PIK3R1 / Fold change vs veh, PIK3R1 / RFU, HNRNPA1 / Fold change vs veh, HNRNPA1 / RFU, RNF170 / Fold change vs veh, RNF170 / RFU, ZNF28 / Fold change vs veh, ZNF28 / RFU, RNGTT / Fold change vs veh, RNGTT / RFU, OGT / Fold change vs veh, OGT / RFU, BRD1 / Fold change vs veh, BRD1 / RFU, MARS / Fold change vs veh, MARS / RFU, ZNF655 / Fold change vs veh, ZNF655 / RFU, FAHD1 / Fold change vs veh, FAHD1 / RFU, BDP1 / Fold change vs veh, BDP1 / RFU, LRRCC1 / Fold change vs veh, LRRCC1 / RFU, ARID1A / Fold change vs veh, ARID1A / RFU, ZNF146 / Fold change vs veh, ZNF146 / RFU, ZNF330 / Fold change vs veh, ZNF330 / RFU, GPN3 / Fold change vs veh, GPN3 / RFU, C9orf123 / Fold change vs veh, C9orf123 / RFU, N4BP2L2 / Fold change vs veh, N4BP2L2 / RFU, ARFIP1 / Fold change vs veh, ARFIP1 / RFU, FAM179B / Fold change vs veh, FAM179B / RFU, BCL10 / Fold change vs veh, BCL10 / RFU, UHRF1BP1L / Fold change vs veh, UHRF1BP1L / RFU, BET1 / Fold change vs veh, BET1 / RFU, CNOT2 / Fold change vs veh, CNOT2 / RFU, ZNF268 / Fold change vs veh, ZNF268 / Fold change vs veh, ZNF507 / RFU, DGCR2 / Fold change vs veh, DGCR2 / RFU, WDSUB1 / Fold change vs veh, WDSUB1 / Fold change vs veh, HSP90B1 /// MIR3652 / RFU, ADSS / Fold change vs veh, ADSS / RFU, GK / Fold change vs veh, GK / RFU, ZNF148 / Fold change vs veh, ZNF148 / RFU, TAF9 / Fold change vs veh, TAF9 / RFU, SLC1A5 / Fold change vs veh, SLC1A5 / RFU, SLMO2 / Fold change vs veh, SLMO2 / RFU, ABCC4 / Fold change vs veh, ABCC4 / RFU, LOC101060439 /// RAP1B / Fold change vs veh, LOC101060439 /// RAP1B / RFU, RFX7 / Fold change vs veh, RFX7 / RFU, GTPBP10 / Fold change vs veh, GTPBP10 / RFU, CNEP1R1 / Fold change vs veh, CNEP1R1 / RFU, BIVM-ERCC5 /// ERCC5 / Fold change vs veh, BIVM-ERCC5 /// ERCC5 / RFU, ILF3 / Fold change vs veh, ILF3 / RFU 11762660_at / Fold change /veh 11762660_at / RFU VCAN (11757783_s_at) / Fold change /veh VCAN (11757783_s_at) / RFU DDX43 (11728927_at) / Fold change /veh DDX43 (11728927_at) / RFU KRT8 (11758188_x_at) / Fold change /veh KRT8 (11758188_x_at) / RFU NKD1 (11759106_at) / Fold change /veh NKD1 (11759106_at) / RFU SRD5A1 (11742802_a_at) / Fold change /veh SRD5A1 (11742802_a_at) / RFU TPSAB1 /// TPSB2 (11721975_s_at) / Fold change /veh TPSAB1 /// TPSB2 (11721975_s_at) / RFU GSTM3 (11746129_a_at) / Fold change /veh GSTM3 (11746129_a_at) / RFU IL23R (11737362_x_at) / Fold change /veh IL23R (11737362_x_at) / RFU TMEM51 (11727254_a_at) / Fold change /veh TMEM51 (11727254_a_at) / RFU PIWIL2 (11732686_x_at) / Fold change /veh PIWIL2 (11732686_x_at) / RFU ORM1 (11744905_x_at) / Fold change /veh ORM1 (11744905_x_at) / RFU CCDC152 (11743942_at) / Fold change /veh CCDC152 (11743942_at) / RFU ECM1 (11717891_a_at) / Fold change /veh ECM1 (11717891_a_at) / RFU IL23R (11748794_a_at) / Fold change /veh IL23R (11748794_a_at) / RFU TNFAIP8L3 (11732012_x_at) / Fold change /veh TNFAIP8L3 (11732012_x_at) / RFU MBOAT4 (11741988_at) / Fold change /veh MBOAT4 (11741988_at) / RFU 11764193_at / Fold change /veh 11764193_at / RFU TMEM53 (11763286_at) / Fold change /veh TMEM53 (11763286_at) / RFU MAGEB2 (11727129_at) / Fold change /veh MAGEB2 (11727129_at) / RFU TMEM200A (11744735_a_at) / Fold change /veh TMEM200A (11744735_a_at) / RFU CCDC152 (11751479_a_at) / Fold change /veh CCDC152 (11751479_a_at) / RFU FAM211A (11726209_a_at) / Fold change /veh FAM211A (11726209_a_at) / RFU RGS16 (11746705_a_at) / Fold change /veh RGS16 (11746705_a_at) / RFU VCAN (11755009_s_at) / Fold change /veh VCAN (11755009_s_at) / RFU RHOB (11743442_s_at) / Fold change /veh RHOB (11743442_s_at) / RFU RGS16 (11720943_a_at) / Fold change /veh RGS16 (11720943_a_at) / RFU RGS16 (11720944_at) / Fold change /veh RGS16 (11720944_at) / RFU, VPS4B / Fold change vs veh, VPS4B / RFU, CREB1 / Fold change vs veh, CREB1 / RFU, DNAJC13 / Fold change vs veh, DNAJC13 / RFU, GNAQ / Fold change vs veh, GNAQ / RFU, CDK5R1 / Fold change vs veh, CDK5R1 / RFU, ZRANB3 / Fold change vs veh, ZRANB3 / RFU, CUL4A / Fold change vs veh, CUL4A / RFU, CCNY / Fold change vs veh, CCNY / RFU, UFL1 / Fold change vs veh, UFL1 / RFU, COG3 / Fold change vs veh, COG3 / RFU, DIAPH2 / Fold change vs veh, DIAPH2 / RFU, SKA2 / Fold change vs veh, SKA2 / RFU, AFF3 / Fold change vs veh, AFF3 / RFU, LMF1 / Fold change vs veh, LMF1 / RFU, IPO11 / Fold change vs veh, IPO11 / RFU, DFFB / Fold change vs veh, DFFB / RFU, FOXP1 / Fold change vs veh, FOXP1 / RFU, CARD8 / Fold change vs veh, CARD8 / RFU, STRN3 / Fold change vs veh, STRN3 / RFU, ADK / Fold change vs veh, ADK / RFU, RASSF2 / Fold change vs veh, RASSF2 / RFU, WIPF1 / Fold change vs veh, WIPF1 / RFU, LARP1B / Fold change vs veh, LARP1B / RFU, RASA1 / Fold change vs veh, RASA1 / RFU, RB1 / Fold change vs veh, RB1 / RFU, PPFIA1 / Fold change vs veh, PPFIA1 / RFU, MAT2A / Fold change vs veh, MAT2A / RFU, CCT5 / Fold change vs veh, CCT5 / RFU, WDR92 / Fold change vs veh, WDR92 / RFU, CUX1 / Fold change vs veh, CUX1 / RFU, TTC7A / Fold change vs veh, TTC7A / RFU, TMEM135 / Fold change vs veh, TMEM135 / RFU, DEPTOR / Fold change vs veh, DEPTOR / RFU, CPM / Fold change vs veh, CPM / RFU, DNAJB6 / Fold change vs veh, DNAJB6 / RFU, CACNA2D3 / Fold change vs veh, CACNA2D3 / RFU, DTX4 / Fold change vs veh, DTX4 / RFU, TFCP2 / Fold change vs veh, TFCP2 / RFU, GMCL1 /// GMCL1P1 / Fold change vs veh, GMCL1 /// GMCL1P1 / RFU, AEBP2 / Fold change vs veh, AEBP2 / RFU, SNHG1 /// SNORD22 /// SNORD25 /// SNORD26 /// SNORD27 /// SNORD28 /// SNORD29 /// SNORD31 / Fold change vs veh, SNHG1 /// SNORD22 /// SNORD25 /// SNORD26 /// SNORD27 /// SNORD28 /// SNORD29 /// SNORD31 / Fold change (Aza/veh), C12orf56 (ProbeSet 11735607_a_at) / Fold change (ACY-1035/veh), C12orf56 (ProbeSet 11735607_a_at) / Fold change (Aza/veh), FGFR1OP (ProbeSet 11751329_s_at) / Fold change (ACY-1035/veh), FGFR1OP (ProbeSet 11751329_s_at) / Fold change (Aza/veh), VPS36 (ProbeSet 11739960_a_at) / Fold change (ACY-1035/veh), VPS36 (ProbeSet 11739960_a_at) / RFU SYPL1 (11715823_x_at) / Fold change /veh SYPL1 (11715823_x_at) / RFU IGFBP7 (11715501_s_at) / Fold change /veh IGFBP7 (11715501_s_at) / RFU REEP3 (11722064_at) / Fold change /veh REEP3 (11722064_at) / RFU IGLL1 (11728026_x_at) / Fold change /veh IGLL1 (11728026_x_at): dose or concentration left out as unconfirmed
Conditions: MV-4-11 cells, 48 hours

Nc1ccc(-c2cccs2)cc1NC(=O)c1ccc2c(c1)cc(C1CC1)n2CCN1CCOCC1 [ACY-1035]
Fold change /veh VPS37D (11726825_at): 1.08

— paper PMC5218480 (PLoS ONE, 2017)
